Measured values published in patent US10287251B2, “Pyrazole derivative or pharmaceutically acceptable salt thereof” (KISSEI PHARMACEUTICAL CO., LTD., priority 2015, dated 2019).

target: T1, TRPM8 (Rattus norvegicus, UniProt Q8R455); assay: Confirmation test of inhibitory effects on icilin-induced wet-dog shakes; format: in vivo; details: female SD rats, oral dose 1 mg/kg, icilin 1 mg/kg i.p. 1 hour after dosing, shakes counted for 5 minutes
T1 construct: from tissue; host or cells: whole animal, female SD rats (in vivo)
T1 sequence (Q8R455 whole entry): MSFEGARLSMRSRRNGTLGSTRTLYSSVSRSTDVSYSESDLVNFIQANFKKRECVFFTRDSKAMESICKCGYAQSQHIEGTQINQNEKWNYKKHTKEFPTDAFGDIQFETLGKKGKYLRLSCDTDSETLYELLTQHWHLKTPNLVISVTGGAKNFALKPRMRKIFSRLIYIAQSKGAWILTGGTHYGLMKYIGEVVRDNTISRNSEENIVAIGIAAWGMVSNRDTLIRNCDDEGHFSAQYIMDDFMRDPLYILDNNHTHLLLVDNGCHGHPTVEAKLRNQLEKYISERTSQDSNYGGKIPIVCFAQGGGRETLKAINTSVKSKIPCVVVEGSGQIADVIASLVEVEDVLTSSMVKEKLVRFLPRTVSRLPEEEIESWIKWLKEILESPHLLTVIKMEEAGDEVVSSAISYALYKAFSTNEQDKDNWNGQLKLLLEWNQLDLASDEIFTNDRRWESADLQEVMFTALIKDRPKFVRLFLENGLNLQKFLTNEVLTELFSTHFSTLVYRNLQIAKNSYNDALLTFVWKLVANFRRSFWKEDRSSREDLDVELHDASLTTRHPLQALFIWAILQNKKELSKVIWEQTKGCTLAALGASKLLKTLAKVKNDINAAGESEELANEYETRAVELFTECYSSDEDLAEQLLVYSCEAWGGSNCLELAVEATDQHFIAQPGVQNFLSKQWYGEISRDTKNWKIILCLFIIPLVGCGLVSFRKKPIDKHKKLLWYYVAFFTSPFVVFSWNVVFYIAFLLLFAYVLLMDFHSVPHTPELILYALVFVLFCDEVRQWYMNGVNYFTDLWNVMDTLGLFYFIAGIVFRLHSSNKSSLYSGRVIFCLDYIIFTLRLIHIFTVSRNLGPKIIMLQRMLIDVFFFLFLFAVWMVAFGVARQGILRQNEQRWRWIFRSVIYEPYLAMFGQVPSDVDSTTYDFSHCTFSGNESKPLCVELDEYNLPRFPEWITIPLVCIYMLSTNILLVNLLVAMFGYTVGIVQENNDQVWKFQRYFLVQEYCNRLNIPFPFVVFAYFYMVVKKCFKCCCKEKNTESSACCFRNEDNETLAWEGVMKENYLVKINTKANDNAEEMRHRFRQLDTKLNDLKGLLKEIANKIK
Excerpt: Further, TRPM8 inhibitory activity can be evaluated by the efficacy inhibiting the wet-dog shake action which is induced by the administration of Icilin, TRPM8 agonist. Furthermore, an effect on overactive bladder (OAB) can be evaluated by an elongation of micturition interval against overactive bladder induced by acetic acid in accordance with a similar method described in J. Urol., 2001, 166, 1142.
Confirmation Test of Inhibitory Effects on Icilin-induced Wet-dog Shakes
Test compounds were dissolved in dimethylacetamide (wako), and 0.5% methylcellulose solution (wako) was added to make the solution or suspension containing 5% of dimethylacetatnide. At a dose of 0.3 to 10 mg/kg/5mL of test compounds were orally administered to female SD rats. After 1 hour, wet-dog shakes were induced by the intraperitoneal injection of icilin (1 mg/kg) which was dissolved in polyethylene glycol 400 (wako). From 5 minutes after the administration of icilin, wet-dog shakes were counted for 5 minutes. For control example, vehicle (a mixture of dimethylacetamide (wako): 0.5% methylcellulose (wako)=5:95) was administrated similarly, and the number of wet-dog shakes was counted in the same manner. A percent inhibition of wet-dog shakes by test compound was calculated from the following formula: [1-(test compound wet-dog shake count/vehicle wet-dog shake count)]×100.

In order of rising “% inhibition of Wet-Dog Shake” value:
1. CC(CO)[C@@H](Cc1ccccn1)NC(=O)c1cccc(F)c1-c1cc(-c2ccc(F)cc2)[nH]n1 (stereo partly drawn) [Example 1-164]  38%
2. O=C(N[C@@H](CO)Cc1ccccn1)c1ccccc1-c1n[nH]c(-c2ccc(F)cc2)c1F [Example 1-97]  50%
3. O=C(N[C@@H](CO)Cc1ncccc1F)c1cccc(F)c1-c1cc(-c2ccc(F)cc2)[nH]n1 [Example 1-167]  65%
4. COC[C@@H](O)[C@@H](Cc1ccccn1)NC(=O)c1cccc(F)c1-c1n[nH]c(-c2ccc(F)cc2)c1F [Example 1-213]  68%
5. O=C(N[C@@H](CCO)Cc1ccccn1)c1ccccc1-c1n[nH]c(-c2ccc(F)cc2)c1F [Example 1-173]  85%

same assay, conditions: female SD rats, oral dose 3 mg/kg, icilin 1 mg/kg i.p. 1 hour after dosing, shakes counted for 5 minutes

In order of falling “% inhibition of Wet-Dog Shake” value:
1. CC(c1ccccn1)[C@H](CCO)NC(=O)c1cccc(F)c1-c1cc(-c2ccc(F)cc2)[nH]n1 (stereo partly drawn) [Example 1-138]  100%
2. O=C(N[C@@H](CCO)Cc1ccccn1)c1ccccc1-c1cc(-c2ccc(F)cc2)[nH]n1 [Example 1-208]  100%
3. O=C(N[C@H](Cc1ccccn1)[C@H](O)CO)c1cccc(F)c1-c1n[nH]c(-c2ccc(F)cc2)c1F [Example 1-156]  99%
4. CC(O)[C@@H](Cc1ccccn1)NC(=O)c1cccc(F)c1-c1cc(-c2ccc(F)cc2)[nH]n1 (stereo partly drawn) [Example 1-113]  98%
5. O=C(N[C@@H](CCO)Cc1ccccn1)c1cccc(F)c1-c1cc(-c2ccc(Cl)cc2)[nH]n1 [Example 1-131]  94%
6. C[C@H](O)C[C@@H](Cc1ccccn1)NC(=O)c1cccc(F)c1-c1cc(-c2ccc(F)cc2)[nH]n1 [Example 1-130]  92%
7. CC(c1ccccn1)[C@H](CO)NC(=O)c1cccc(F)c1-c1cc(-c2ccc(F)cc2)[nH]n1 (stereo partly drawn) [Example 1-200]  91%
8. O=C(N[C@@H](CO)Cc1ccccn1)c1cccc(F)c1-c1n[nH]c(-c2ccc(F)cc2)c1F [Example 1-105]  90%
9. O=C(N[C@@H](CO)Cc1ccccn1)c1cccc(F)c1-c1cc(-c2ccc(Cl)cc2)[nH]n1 [Example 1-137]  84%
10. O=C(N[C@@H](CO)Cc1ccccc1)c1cccc(F)c1-c1cc(-c2ccc(F)cc2)[nH]n1 [Example 1-86]  76%
11. O=C(N[C@@H](CCO)Cc1ccccn1)c1cccc(F)c1-c1n[nH]c(-c2ccc(Cl)cc2)c1F [Example 1-154]  75%
12. C[C@](O)(CO)[C@@H](Cc1ccccn1)NC(=O)c1cccc(F)c1-c1cc(-c2ccc(F)cc2)[nH]n1 [Example 1-217]  75%
13. O=C(N[C@@H](CO)C(O)c1ccccn1)c1cccc(F)c1-c1cc(-c2ccc(F)cc2)[nH]n1 (single isomer, unassigned) [Example 54-1]  70%
14. O=C(N[C@@H](CO)C(O)c1ccccn1)c1ccccc1-c1n[nH]c(-c2ccc(F)cc2)c1F (stereo partly drawn) [Example 1-205]  70%
15. O=C(N[C@@H](CO)Cc1ccccn1)c1cccc(OC(F)(F)F)c1-c1cc(-c2ccc(F)cc2)[nH]n1 [Example 1-64]  69%
16. O=C(N[C@@H](CO)Cc1ccccn1)c1ccccc1-c1cc(-c2ccc(F)c(F)c2)[nH]n1 [Example 1-29]  66%
17. COc1cccnc1C[C@H](CO)NC(=O)c1cccc(F)c1-c1cc(-c2ccc(F)cc2)[nH]n1 [Example 1-196]  63%
18. COc1cccnc1C[C@H](CCO)NC(=O)c1cccc(F)c1-c1cc(-c2ccc(F)cc2)[nH]n1 [Example 1-108]  61%
19. C[C@H](O)[C@@H](Cc1ccccc1)NC(=O)c1cccc(F)c1-c1cc(-c2ccc(F)cc2)[nH]n1 [Example 1-104]  60%
20. O=C(N[C@@H](CO)Cc1ncccn1)c1cccc(F)c1-c1cc(-c2ccc(F)cc2)[nH]n1 [Example 1-174]  60%
21. O=C(NCC(O)c1ccccn1)c1cccc(F)c1-c1cc(-c2ccc(F)cc2)[nH]n1 (stereo not drawn) [Example 1-194]  60%
22. O=C(N[C@@H](CO)Cc1nccs1)c1cccc(F)c1-c1cc(-c2ccc(F)cc2)[nH]n1 [Example 1-177]  59%
23. O=C(N[C@H](Cc1ccccn1)[C@H](O)CO)c1ccccc1-c1cc(-c2ccc(F)cc2)[nH]n1 [Example 1-185]  56%
24. O=C(N[C@@H](CO)Cc1ccccc1)c1ccccc1-c1cc(-c2ccc(F)c(F)c2)[nH]n1 [Example 1-62]  55%
25. O=C(N[C@@H](CCO)C(O)c1ccccn1)c1ccccc1-c1n[nH]c(-c2ccc(F)cc2)c1F (stereo partly drawn) [Example 1-206]  55%
26. O=C(N[C@@H](CCO)Cc1ccccn1)c1cccc(OC(F)(F)F)c1-c1cc(-c2ccc(F)cc2)[nH]n1 [Example 1-134]  49%
27. O=C(N[C@@H](CO)C(O)c1ccccn1)c1cccc(F)c1-c1cc(-c2ccc(F)cc2)[nH]n1 (single isomer, unassigned) [Example 54-2]  48%
28. CC(CO)[C@@H](Cc1ccccn1)NC(=O)c1cccc(F)c1-c1cc(-c2ccc(Cl)cc2)[nH]n1 (stereo partly drawn) [Example 1-162]  48%
29. O=C(N[C@@H](CO)C(O)c1ccccn1)c1cccc(Cl)c1-c1cc(-c2ccc(F)cc2)[nH]n1 (stereo partly drawn) [Example 1-210]  47%
30. O=C(N[C@@H](CO)Cc1ccccn1)c1ccccc1-c1cc(-c2ccc(Cl)cc2)[nH]n1 [Example 1-59]  46%
31. Cc1cccnc1C[C@H](CCO)NC(=O)c1cccc(F)c1-c1cc(-c2ccc(F)cc2)[nH]n1 [Example 1-117]  46%
32. O=C(N[C@@H](CO)Cc1ccccn1)c1cccc(Cl)c1-c1cc(-c2ccc(F)cc2)[nH]n1 [Example 1-103]  45%
33. O=C(N[C@@H](CO)Cc1ncccc1C(F)(F)F)c1cccc(F)c1-c1cc(-c2ccc(F)cc2)[nH]n1 [Example 1-197]  44%
34. CC(O)[C@@H](Cc1ccccn1)NC(=O)c1cccc(F)c1-c1cc(-c2ccc(F)cc2)[nH]n1 (stereo partly drawn) [Example 1-124]  42%
35. O=C(N[C@@H](CO)Cc1ccccc1)c1cccc(F)c1-c1cc(-c2ccccc2)[nH]n1 [Example 1-68]  41%
36. C[C@](O)(CO)[C@@H](Cc1ccccn1)NC(=O)c1cccc(Cl)c1-c1cc(-c2ccc(F)cc2)[nH]n1 [Example 1-218]  40%
37. O=C(N[C@@H](CO)Cc1cscn1)c1cccc(F)c1-c1cc(-c2ccc(F)cc2)[nH]n1 [Example 1-182]  37%
38. Cn1ccnc1C[C@H](CO)NC(=O)c1cccc(F)c1-c1cc(-c2ccc(F)cc2)[nH]n1 [Example 1-183]  36%
39. O=C(N[C@H](Cc1ccccn1)[C@H](O)CO)c1cccc(Cl)c1-c1cc(-c2ccc(F)cc2)[nH]n1 [Example 1-169]  34%
40. O=C(N[C@@H](CCO)Cc1ncccn1)c1cccc(F)c1-c1cc(-c2ccc(F)cc2)[nH]n1 [Example 1-191]  31%

same assay, conditions: female SD rats, oral dose 10 mg/kg, icilin 1 mg/kg i.p. 1 hour after dosing, shakes counted for 5 minutes

In order of rising “% inhibition of Wet-Dog Shake” value:
1. NC(=O)[C@@H](Cc1ccccn1)NC(=O)c1ccccc1-c1cc(-c2ccccc2)[nH]n1 [Example 1-15]  54%
2. NC(=O)C[C@@H](Cc1ccccc1)NC(=O)c1ccccc1-c1cc(-c2ccc(F)cc2)[nH]n1 [Example 1-77]  59%
3. NC(=O)C[C@@H](Cc1ccccc1)NC(=O)c1cccc(F)c1-c1cc(-c2ccc(F)cc2)[nH]n1 [Example 1-128]  59%
4. O=C(NCCc1ccccn1)c1ccccc1-c1cc(-c2ccccc2)[nH]n1 [Example 1-3]  66%
5. O=C(N[C@@H](CO)Cc1ccccn1)c1ccccc1-c1cc(-c2ccccc2)[nH]n1 [Example 1-27]  68%
6. O=C(NC(CCO)Cc1ccccc1)c1ccccc1-c1cc(-c2ccc(F)cc2)[nH]n1 (stereo not drawn) [Example 1-76]  72%
7. O=C(N[C@@H](CO)Cc1ccccn1)c1ccccc1-c1cc(-c2ccc(Cl)c(F)c2)[nH]n1 [Example 1-85]  86%
8. O=C(N[C@@H](CO)Cc1ccccn1)c1cccc(F)c1-c1cc(-c2ccccc2)[nH]n1 [Example 1-69]  93%
9. O=C(N[C@@H](CO)Cc1ccccn1)c1c(F)cccc1-c1cc(-c2ccc(F)cc2)[nH]n1 [Example 1-94]  100%
